Experimental data taken from PubChem BioAssay AID256 (DTP/NCI, 2004).
Where “and” joins values, the source holds several entries; their conditions need not be identical. Equal values may be shown once. Inconclusive results and toxic doses are left out. How the source made its calls: active means survival T/C of 150% or more; inactive means T/C below 125% in these data.

Tested on: CD2F1 mice, L1210 leukemia ip, survival T/C
Test: NCI In Vivo Anticancer Drug Screen. Data for tumor model L1210 Leukemia (intraperitoneal) in CD2F1 (CDF1) mice
Details: higher = longer survival
Procedure, shortened: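 Read-out first: treated-group measurement over vehicle-control measurement, expressed as a ratio. Animals bore a transplanted tumor line and were dosed with compound or vehicle.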

[1] = endpoint: mean survival time, dose: 100.0 mg/kg/injection, schedule: Q04DX003 (ip), vehicle: saline
[2] = endpoint: mean survival time, dose: 200.0 mg/kg/injection, schedule: Q04DX003 (ip), vehicle: saline
[3] = endpoint: mean survival time, dose: 400.0 mg/kg/injection, schedule: Q04DX003 (ip), vehicle: saline
[4] = endpoint: mean survival time, dose: 100.0 mg/kg/injection, schedule: Q04DX003 (ip), vehicle: saline with Tween-80
[5] = endpoint: mean survival time, dose: 200.0 mg/kg/injection, schedule: Q04DX003 (ip), vehicle: saline with Tween-80
[6] = endpoint: mean survival time, dose: 400.0 mg/kg/injection, schedule: Q04DX003 (ip), vehicle: saline with Tween-80
[7] = endpoint: mean survival time, dose: 100.0 mg/kg/injection, schedule: Q04DX003 (ip), vehicle: other
[8] = endpoint: mean survival time, dose: 200.0 mg/kg/injection, schedule: Q04DX003 (ip), vehicle: other
[9] = endpoint: mean survival time, dose: 75.0 mg/kg/injection, schedule: Q01DX001 (ip), vehicle: saline
[10] = endpoint: mean survival time, dose: 150.0 mg/kg/injection, schedule: Q01DX001 (ip), vehicle: saline
[11] = endpoint: median survival time, dose: 12.5 mg/kg/injection, schedule: Q01DX009 (ip), vehicle: saline
[12] = endpoint: median survival time, dose: 25.0 mg/kg/injection, schedule: Q01DX009 (ip), vehicle: saline
[13] = endpoint: mean survival time, dose: 200.0 mg/kg/injection, schedule: Q04DX003 (ip), vehicle: Klucel (hydroxypropylcellulose) (HPC)
[14] = endpoint: mean survival time, dose: 100.0 mg/kg/injection, schedule: Q01DX001 (ip), vehicle: saline
[15] = endpoint: mean survival time, dose: 200.0 mg/kg/injection, schedule: Q01DX001 (ip), vehicle: saline
[16] = endpoint: mean survival time, dose: 400.0 mg/kg/injection, schedule: Q01DX001 (ip), vehicle: saline
[17] = endpoint: mean survival time, dose: 100.0 mg/kg/injection, schedule: Q01DX001 (ip), vehicle: saline with Tween-80
[18] = endpoint: mean survival time, dose: 200.0 mg/kg/injection, schedule: Q01DX001 (ip), vehicle: saline with Tween-80
[19] = endpoint: mean survival time, dose: 400.0 mg/kg/injection, schedule: Q01DX001 (ip), vehicle: saline with Tween-80
[20] = endpoint: mean survival time, dose: 200.0 mg/kg/injection, schedule: Q01DX009 (ip), vehicle: saline with Tween-80
[21] = endpoint: mean survival time, dose: 50.0 mg/kg/injection, schedule: Q01DX009 (ip), vehicle: saline with Tween-80
[22] = endpoint: mean survival time, dose: 100.0 mg/kg/injection, schedule: Q01DX009 (ip), vehicle: saline with Tween-80

Measured: T/C

Nc1ccn(C2CC3OCC3O2)c(=O)n1 (centres undefined)
inactive: endpoint: median survival time, dose: 12.5 mg/kg/injection, schedule: Q01DX005 (ip), vehicle: saline 97 % of control | endpoint: median survival time, dose: 25.0 mg/kg/injection, schedule: Q01DX005 (ip), vehicle: saline 105 % of control | endpoint: median survival time, dose: 50.0 mg/kg/injection, schedule: Q01DX005 (ip), vehicle: saline 103 % of control | endpoint: median survival time, dose: 100.0 mg/kg/injection, schedule: Q01DX005 (ip), vehicle: saline 110 % of control | endpoint: median survival time, dose: 200.0 mg/kg/injection, schedule: Q01DX005 (ip), vehicle: saline 104 % of control

COc1ccc(-c2nc(N)nc3c2CN(CCCC(=O)O)C3=O)cc1
inactive: [1] 98 % of control | [2] 98 % of control | [3] 96 % of control

Cc1[nH]c(=O)c(Br)cc1Br
inactive: [4] 98 % of control | [5] 101 % of control | [6] 101 % of control

C1=CC2OC1c1cc3ccccc3cc12
inactive: [7] 121 % of control | [8] 105 % of control

Cc1ccc2c(c1)nc1c3ccccc3nnn21
inactive: [9] 95 % of control | [10] 95 % of control

CCCCCCCCOC(=O)C12Oc3ccc(-c4ccc5c(c4O)C(O)=C4C(=O)CC(C)C(O)C4(C(=O)OCCCCCCCC)O5)c(O)c3C(O)=C1C(=O)CC(C)C2O (centres undefined)
inactive: endpoint: mean survival time, dose: 2.5 mg/kg/injection, schedule: Q01DX009 (ip), vehicle: saline with Tween-80 97 % of control | endpoint: mean survival time, dose: 5.0 mg/kg/injection, schedule: Q01DX009 (ip), vehicle: saline with Tween-80 97 % of control | endpoint: mean survival time, dose: 10.0 mg/kg/injection, schedule: Q01DX009 (ip), vehicle: saline with Tween-80 97 % of control

Nc1nc2c(c(=O)[nH]1)CN(c1ccc(Cl)cc1)C2
inactive: [9] 98 % of control | [10] 104 % of control | endpoint: mean survival time, dose: 300.0 mg/kg/injection, schedule: Q01DX001 (ip), vehicle: saline 93 % of control

CC(C)C(=O)OCCOC(=O)C(C)C
inactive: [1] 100 % of control | [2] 97 % of control | [3] 96 % of control

CN(C)C(=O)Nc1ccc(Cl)cc1
inactive: [11] 100 % of control | [12] 100 % of control | endpoint: median survival time, dose: 50.0 mg/kg/injection, schedule: Q01DX009 (ip), vehicle: saline 103 % of control | endpoint: median survival time, dose: 100.0 mg/kg/injection, schedule: Q01DX009 (ip), vehicle: saline 100 % of control | endpoint: median survival time, dose: 200.0 mg/kg/injection, schedule: Q01DX009 (ip), vehicle: saline 101 % of control | endpoint: median survival time, dose: 400.0 mg/kg/injection, schedule: Q01DX009 (ip), vehicle: saline 100 % of control

CCOP(=S)(OCC)OP(=S)(OCC)OCC
inactive: endpoint: mean survival time, dose: 4.0 mg/kg/injection, schedule: Q04DX003 (ip), vehicle: other 95 % of control

COC(=O)c1ccccc1NC1=NCCO1
inactive: [13] 97 % of control | endpoint: mean survival time, dose: 400.0 mg/kg/injection, schedule: Q04DX003 (ip), vehicle: Klucel (hydroxypropylcellulose) (HPC) 86 % of control

COC(=O)C(O)C(O)C(O)C(O)C(O)CO (centres undefined)
inactive: [14] 95 % of control | [15] 98 % of control | [16] 96 % of control

CC12CCC(c3cn(C(=O)c4cccnc4)nc31)C2(C)C (centres undefined)
inactive: endpoint: mean survival time, dose: 50.0 mg/kg/injection, schedule: Q01DX009 (ip), vehicle: Klucel (hydroxypropylcellulose) (HPC) 102 % of control | endpoint: mean survival time, dose: 100.0 mg/kg/injection, schedule: Q01DX009 (ip), vehicle: Klucel (hydroxypropylcellulose) (HPC) 94 % of control

O=C(O)C[Se](=O)O
inactive: endpoint: mean survival time, dose: 12.5 mg/kg/injection, schedule: Q01DX001 (ip), vehicle: saline with Tween-80 91 % of control | endpoint: mean survival time, dose: 25.0 mg/kg/injection, schedule: Q01DX001 (ip), vehicle: saline with Tween-80 91 % of control

CC(=O)Nc1cccc([N+](=O)[O-])c1
inactive: endpoint: mean survival time, dose: 100.0 mg/kg/injection, schedule: Q04DX003 (ip), vehicle: Klucel (hydroxypropylcellulose) (HPC) 94 % of control | [13] 97 % of control

COc1ccc(CNCCO)cc1O
inactive: [14] 101 % of control | [15] 98 % of control | [16] 98 % of control

CCNC(=O)N1CC2CCC(C1)N2C
inactive: [1] 101 % of control | [2] 96 % of control | [3] 90 % of control

O=C(O)c1ccccc1O.[Fe]
inactive: [15] 112 % of control

O=P1(N(CCCl)CCCl)NCCC2(O1)C1CC3CC(C1)CC2C3 (centres undefined)
inactive: endpoint: mean survival time, dose: 15.6 mg/kg/injection, schedule: Q01DX001 (ip), vehicle: distilled water + Tween-80 97 % of control | endpoint: mean survival time, dose: 31.3 mg/kg/injection, schedule: Q01DX001 (ip), vehicle: distilled water + Tween-80 96 % of control | endpoint: mean survival time, dose: 62.5 mg/kg/injection, schedule: Q01DX001 (ip), vehicle: distilled water + Tween-80 99 % of control | endpoint: mean survival time, dose: 125.0 mg/kg/injection, schedule: Q01DX001 (ip), vehicle: distilled water + Tween-80 86 % of control | endpoint: mean survival time, dose: 500.0 mg/kg/injection, schedule: Q01DX001 (ip), vehicle: distilled water + Tween-80 86 % of control

CC(=O)OC1CC2C=CCC21 (centres undefined)
inactive: [17] 100 % of control | [18] 96 % of control | [19] 96 % of control

C1CC2OC2CCC2OC12 (centres undefined)
inactive: endpoint: mean survival time, dose: 100.0 mg/kg/injection, schedule: Q01DX009 (ip), vehicle: saline sonified 103 % of control | [4] 100 % of control | endpoint: mean survival time, dose: 200.0 mg/kg/injection, schedule: Q01DX009 (ip), vehicle: saline sonified 104 % of control | [5] 97 % of control | endpoint: mean survival time, dose: 400.0 mg/kg/injection, schedule: Q01DX009 (ip), vehicle: saline sonified 104 % of control | [6] 103 % of control

CN=C(N)N/N=C(\c1ccccc1)c1ccc(Br)cc1
inactive: endpoint: median survival time, dose: 3.12 mg/kg/injection, schedule: Q01DX009 (ip), vehicle: saline 100 % of control | endpoint: median survival time, dose: 6.25 mg/kg/injection, schedule: Q01DX009 (ip), vehicle: saline 106 % of control | [11] 107 % of control | [12] 121 % of control

CCOC(=O)NC(S(=O)(=O)O)S(=O)(=O)O
inactive: [14] 104 % of control | [15] 104 % of control | [16] 108 % of control

CC1(C)C2CC=C(CCCc3ccccc3)C1C2 (centres undefined)
inactive: [4] 98 % of control | [5] 93 % of control

CCCCCCCCCC(=O)NCC[N+](C)(CC)CC
inactive: endpoint: mean survival time, dose: 5.0 mg/kg/injection, schedule: Q01DX001 (ip), vehicle: saline 102 % of control | endpoint: mean survival time, dose: 10.0 mg/kg/injection, schedule: Q01DX001 (ip), vehicle: saline 107 % of control | endpoint: mean survival time, dose: 20.0 mg/kg/injection, schedule: Q01DX001 (ip), vehicle: saline 100 % of control | endpoint: mean survival time, dose: 40.0 mg/kg/injection, schedule: Q01DX001 (ip), vehicle: saline 105 % of control

CCCCCCCCCCCCCC[N+]1(C)CCC[N+](C)(CCCCCCCCCCCCCC)CC1 (centres undefined)
inactive: [7] 103 % of control | [8] 88 % of control

O=C1c2c(Cl)c(Cl)c(Cl)c(Cl)c2C(=O)N1O
inactive: [4] 98 % of control | [20] 98 % of control | [5] 98 % of control | [6] 101 % of control

COc1cc(OC)c2c(c1Cl)OC(C(C)=O)C2=O (centres undefined)
inactive: [21] 97 % of control | [22] 102 % of control | [4] 93 % of control | [20] 96 % of control | [5] 102 % of control

Cc1ccc(S(=O)(=O)NC(=O)OC23COCN2COC3)cc1
inactive: endpoint: mean survival time, dose: 12.5 mg/kg/injection, schedule: Q01DX009 (ip), vehicle: saline with Tween-80 96 % of control and 101 % of control | endpoint: mean survival time, dose: 25.0 mg/kg/injection, schedule: Q01DX009 (ip), vehicle: saline with Tween-80 96 % of control and 102 % of control | [21] 97 % of control and 101 % of control | [22] 117 % of control and 102 % of control | [20] 113 % of control and 108 % of control | endpoint: mean survival time, dose: 400.0 mg/kg/injection, schedule: Q01DX009 (ip), vehicle: saline with Tween-80 113 % of control and 105 % of control

CC(=O)OCCCOC(C)=O
inactive: [17] 93 % of control | [18] 112 % of control | [19] 101 % of control

CCOC(c1ccccc1)(c1ccccc1)c1ccccc1
inactive: endpoint: mean survival time, dose: 100.0 mg/kg/injection, schedule: Q01DX009 (ip), vehicle: other 98 % of control | endpoint: mean survival time, dose: 200.0 mg/kg/injection, schedule: Q01DX009 (ip), vehicle: other 102 % of control | endpoint: mean survival time, dose: 400.0 mg/kg/injection, schedule: Q01DX009 (ip), vehicle: other 96 % of control
